Test results: patent publication US20120214847A1, “2-[1-PHENYL-5-HYDROXY-4a-SUBSTITUTED-HEXAHYDROCYCLOPENTA[F]INDAZOL-5-YL]ETHYL PHENYL DERIVATIVES AS GLUCOCORTICOID RECEPTOR LIGANDS” (Merck Sharp & Dohme Corp., priority 2009, published 2012)

biological target: T1, glucocorticoid receptor (Homo sapiens, UniProt P04150); assay: Ligand binding assay (GRBind), 3H-dexamethasone displacement in HeLa cell lysate; conditions: 3H-DEX tracer
T1 construct: endogenous in cells; host or cells: HeLa (ATCC) cell lysate supernatant
T1 sequence (P04150 1-777): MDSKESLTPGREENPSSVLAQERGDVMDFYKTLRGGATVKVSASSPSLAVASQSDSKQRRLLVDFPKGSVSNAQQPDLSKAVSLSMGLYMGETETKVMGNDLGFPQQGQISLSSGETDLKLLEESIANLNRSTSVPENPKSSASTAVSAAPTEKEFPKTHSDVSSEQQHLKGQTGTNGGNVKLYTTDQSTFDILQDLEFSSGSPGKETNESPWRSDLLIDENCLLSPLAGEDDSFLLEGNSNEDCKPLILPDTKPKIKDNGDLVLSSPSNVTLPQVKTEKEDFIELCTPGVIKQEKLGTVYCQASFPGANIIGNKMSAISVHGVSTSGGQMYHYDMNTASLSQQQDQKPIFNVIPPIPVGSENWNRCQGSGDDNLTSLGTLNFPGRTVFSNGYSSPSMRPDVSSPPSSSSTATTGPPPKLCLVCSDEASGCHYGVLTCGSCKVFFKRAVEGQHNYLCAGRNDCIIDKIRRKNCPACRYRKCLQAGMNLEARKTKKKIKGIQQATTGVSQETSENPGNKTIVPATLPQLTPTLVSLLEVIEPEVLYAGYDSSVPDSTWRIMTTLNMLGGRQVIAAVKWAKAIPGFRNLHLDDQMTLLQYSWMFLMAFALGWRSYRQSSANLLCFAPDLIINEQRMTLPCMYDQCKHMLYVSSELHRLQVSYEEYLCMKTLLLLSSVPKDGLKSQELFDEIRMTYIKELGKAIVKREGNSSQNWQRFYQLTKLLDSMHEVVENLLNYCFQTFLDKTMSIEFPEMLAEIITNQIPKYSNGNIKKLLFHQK
Protocol: Binding Buffer: TEGM (10 mM Tris-HCl, 1 mM EDTA, 10% glycerol, 1 mM betamecaptoethanol, 10 mM Sodium Molybdate, pH 7.2)
50% HAP Slurry: Calbiochem Hydroxylapatite, Fast Flow, in 10 mM Tris, pH 8.0 and 1 mM EDTA.
Wash Buffer: 40 mM Tris, pH7.5, 100 mM KCl, 1 mM EDTA and 1 mM EGTA. 95% EtOH Dexmethasone-methyl-3H, (DEXA*); (Amersham cat#TRK645) Dexamethasone(DEX) (Sigma, cat#01756):
Hydroxylapatite Fast Flow; Calbiochem Cat#391947
25 Molybdate=Molybdic Acid (Sigma, M1651)
5 Cells (Hall R. E., et al., European Journal of Cancer, 30A: 484-490 (1994)) HeLa (ATCC) cultured in RPMI 1640 (Gibed 11835-055) containing 20 mM Hepes, 4 mM L-glu, 10 ug/ml of human insulin (Sigma, 1-0259), 10% FBS and 20 uglml of Gentamicin (Gibco#15710072) are rinsed twice in PBS. Phenol red-free Trypsin-EDTA is diluted in the same PBS 1:10. The cell layers are rinsed with IX Trypsin, extra Trypsin is poured out, and the cell layers are incubated at 37° C. for 2 min. The flask is tapped and checked for signs of cell detachment. Once the cells begin to slide off the flask, the complete media is added. The cells are counted at this point, then diluted to the appropriate concentration and split into flasks or dishes for further culturing (Usually 1:3 to 1:6 dilution).
Preparation of HeLa Cell Lysate
When the cells are 70 to 85% confluent, they are detached as described above, and collected by centrifuging at 1000 g for 10 min at 4° C. The cell pellet is washed twice with TEGM (10 mM Tris-HCl, 1 mM EDTA, 10% glycerol, 1 mM beta-mercaptoethanol, 10 mM Sodium Molybdate, pH 7.2). After the final wash, the cells are resuspended in TEGM at a concentration of 10^7 cells/mL. The cell suspension is snap frozen in liquid nitrogen or ethanol/dry ice bath and transferred to −80° C. freezer on dry ice. Before setting up the binding assay, the frozen samples are left on ice-water to just thaw. Then the samples are centrifuged at 12,500 g to 20,000 g for 30 min at 4° C. The supernatant is used to set-up assay right away. If using 50 μL of supernatant, the test compound can be prepared in 50 μL of the TEGM buffer.
Procedure for Multiple Compound Screening
1×TEGM buffer is prepared, and the isotope-containing assay mixture is prepared in the following order: EtOH (2% final concentration in reaction), 3H-DEX (Amersham Biosciences) and 1×TEGM. [e.g. For 100 samples, 200 JlL (100×2) of EtOH+4.25 JlL of 1:10 ^3H-Dex stock+2300 μL (100×23) 1×TEGM]. The compound is serially diluted, e.g., if starting final conc. is 1 μM, and the compound is in 25 μL of solution, for duplicate samples, 75 μL of 4×1 μM solution is made and 3 μL of 100). 1M is added to 72 μL of buffer, and 1:5 serial dilution.
25 μL of ^3H-DEX (6 nM) trace and 25 μL, compound solution are first mixed together, followed by addition of 50 μL receptor solution. The reaction is gently mixed, spun briefly at about 200 rpm and incubated at 4° C. overnight. 100 μL of 50% HAP slurry is prepared and added to the incubated reaction which is then vortexed and incubated on ice for 5 to 10 min. The reaction mixture is vortexed twice more to resuspend HAP while incubating reaction. The samples in 96-well format are then washed in wash buffer using the FilterMate™ Universal Harvester plate washer (Packard). The washing process transfers HAP pellet containing ligand-bound expressed receptor to Unifilter-96 GFIB filter plate (Packard). The HAP pellet on the filter plate is incubated with […] of MICROSCINT (Packard) scintillant for 30 min before being counted on the TopCount microscintillation counter (Packard). IC50s are calculated using DEX as a reference.

SMILES | Ki [nM]
COc1cccc(CC[C@]2(O)CCC3=Cc4c(cnn4-c4ccc(F)cc4)C[C@@]32C2CC2)c1C(N)=O [Example 38, 2-{2-[(4aR,5R)-4a-Cyclopropyl-1-(4-fluorophenyl)-5-hydroxy-1,4,4a,5,6,7-hexahydrocyclopenta[f]indazol-5-yl]ethyl}-6-methoxybenzamide] | 1.25
NC(=O)c1cc(F)ccc1CC[C@]1(O)CCC2=Cc3c(cnn3-c3ccc(F)cc3)C[C@@]21C1CC1 [Example 39, 2-{2-[(4aR,5R)-4a-Cyclopropyl-1-(4-fluorophenyl)-5-hydroxy-1,4,4a,5,6,7-hexahydrocyclopenta[f]indazol-5-yl]ethyl}-5-fluorobenzamide] | 1.98
CC[C@]12Cc3cnn(-c4ccc(F)cc4)c3C=C1CC[C@@]2(O)CCc1nccc(C2CC2)c1C(=O)OC [Example 41, Methyl 4-cyclopropyl-2-{2-[(4aS,5R)-4a-ethyl-1-(4-fluorophenyl)-5-hydroxy-1,4,4a,5,6,7-hexahydrocyclopenta[f]indazol-5-yl]ethyl}pyridine-3-carboxylate] | 2.63
NC(=O)CNC(=O)c1cccnc1CC[C@]1(O)CCC2=Cc3c(cnn3-c3ccc(F)cc3)C[C@@]21C1CC1 [Example 43, N-(2-Amino-2-oxoethyl)-2-{2-[(4aR,5R)-4a-cyclopropyl-1-(4-fluorophenyl)-5-hydroxy-1,4,4a,5,6,7-hexahydrocyclopenta[f]indazol-5-yl]ethyl}pyridine-3-carboxamide] | 5.47
NC(=O)CNC(=O)c1cc(F)cnc1CC[C@]1(O)CCC2=Cc3c(cnn3-c3ccc(F)cc3)C[C@@]21C1CC1 [Example 44, N-(2-Amino-2-oxoethyl)-2-{2-[(4aR,5R)-4a-cyclopropyl-1-(4-fluorophenyl)-5-hydroxy-1,4,4a,5,6,7-hexahydrocyclopenta[f]indazol-5-yl]ethyl}-5-fluoropyridine-3-carboxamide] | 4.6
O=C(NC1(CO)CC1)c1ccccc1CC[C@]1(O)CCC2=Cc3c(cnn3-c3ccc(F)cc3)C[C@@]21C1CC1 [Example 46, 2-{2-[(4aR,5R)-4a-Cyclopropyl-1-(4-fluorophenyl)-5-hydroxy-1,4,4a,5,6,7-hexahydrocyclopenta[f]indazol-5-yl]ethyl}-N-[1-(hydroxymethyl)cyclopropyl]benzamide] | 1.99
NC(=O)CNC(=O)c1ccccc1CC[C@]1(O)CCC2=Cc3c(cnn3-c3ccc(F)cc3)C[C@@]21C1CC1 [Example 47, N-(2-Amino-2-oxoethyl)-2-{2-[(4aR,5R)-4a-cyclopropyl-1-(4-fluorophenyl)-5-hydroxy-1,4,4a,5,6,7-hexahydrocyclopenta[f]indazol-5-yl]ethyl}benzamide] | 1.43
CC(C)(CO)NC(=O)c1cc(F)cnc1CC[C@]1(O)CCC2=Cc3c(cnn3-c3ccc(F)cc3)C[C@@]21C1CC1 [Example 48, 2-{2-[(4aR,5R)-4a-Cyclopropyl-1-(4-fluorophenyl)-5-hydroxy-1,4,4a,5,6,7-hexahydrocyclopenta[f]indazol-5-yl]ethyl}-5-fluoro-N-(1-hydroxy-2-methylpropan-2-yl)pyridine-3-carboxamide] | 3.55
NC(=O)c1c(C2CC2)ccnc1CC[C@]1(O)CCC2=Cc3c(cnn3-c3ccc(F)cc3)C[C@@]21C1CC1 [Example 49, 4-Cyclopropyl-2-{2-[(4aR,5R)-4a-cyclopropyl-1-(4-fluorophenyl)-5-hydroxy-1,4,4a,5,6,7-hexahydrocyclopenta[f]indazol-5-yl]ethyl}pyridine-3-carboxamide] | 2.7
O=C(NCCO)c1ccccc1CC[C@]1(O)CCC2=Cc3c(cnn3-c3ccc(F)cc3)C[C@@]21C1CC1 [Example 50, 2-{2-[(4aR,5R)-4a-Cyclopropyl-1-(4-fluorophenyl)-5-hydroxy-1,4,4a,5,6,7-hexahydrocyclopenta[f]indazol-5-yl]ethyl}-N-(2-hydroxyethyl)benzamide] | 2.09
COc1ccnc(CC[C@]2(O)CCC3=Cc4c(cnn4-c4ccc(F)cc4)C[C@@]32C2CC2)c1C(N)=O [Example 54, 2-{2-[(4aR,5R)-4a-Cyclopropyl-1-(4-fluorophenyl)-5-hydroxy-1,4,4a,5,6,7-hexahydrocyclopenta[f]indazol-5-yl]ethyl}-4-methoxypyridine-3-carboxamide] | 2.44

Second part, the compound after the results:

Ki [nM] | SMILES
2.45 | CC[C@]12Cc3cnn(-c4ccc(F)cc4)c3C=C1CC[C@@]2(O)CCc1ccccc1S(=O)(=O)C(C)C [Example 40, (4aS,5R)-4a-Ethyl-1-(4-fluorophenyl)-5-{2-[2-(propan-2-ylsulfonyl)phenyl]ethyl}-1,4,4a,5,6,7-hexahydrocyclopenta[f]indazol-5-ol]
1.97 | CC[C@]12Cc3cnn(-c4ccc(F)cc4)c3C=C1CC[C@@]2(O)CCc1ccccc1S(C)(=O)=O [Example 42, (4aS,5R)-4a-Ethyl-1-(4-fluorophenyl)-5-{2-[2-(methylsulfonyl)phenyl]ethyl}-1,4,4a,5,6,7-hexahydrocyclopenta[f]indazol-5-ol]
2.09 | CC(C)(CO)NC(=O)c1ccccc1CC[C@]1(O)CCC2=Cc3c(cnn3-c3ccc(F)cc3)C[C@@]21C1CC1 [Example 45, 2-{2-[(4aR,5R)-4a-Cyclopropyl-1-(4-fluorophenyl)-5-hydroxy-1,4,4a,5,6,7-hexahydrocyclopenta[f]indazol-5-yl]ethyl}-N-(1-hydroxy-2-methylpropan-2-yl)benzamide]
2.45 | CC[C@]12Cc3cnn(-c4ccc(F)cc4)c3C=C1CC[C@@]2(O)CCc1ccccc1S(=O)(=O)CC [Example 51, (4aS,5R)-4a-Ethyl-5-{2-[2-(ethylsulfonyl)phenyl]ethyl}-1-(4-fluorophenyl)-1,4,4a,5,6,7-hexahydrocyclopenta[f]indazol-5-ol]
9.83 | CC[C@]12Cc3cnn(-c4ccc(F)cc4)c3C=C1CC[C@@]2(O)CCc1ncccc1C(N)=O [Example 52, 2-{2-[(4aS,5R)-4a-Ethyl-1-(4-fluorophenyl)-5-hydroxy-1,4,4a,5,6,7-hexahydrocyclopenta[f]indazol-5-yl]ethyl}pyridine-3-carboxamide]
5.97 | CC[C@]12Cc3cnn(-c4ccc(F)cc4)c3C=C1CC[C@@]2(O)CCc1ncc(F)cc1C(N)=O [Example 53, 2-{2-[(4aS,5R)-4a-Ethyl-1-(4-fluorophenyl)-5-hydroxy-1,4,4a,5,6,7-hexahydrocyclopenta[f]indazol-5-yl]ethyl}-5-fluoropyridine-3-carboxamide]
